Here are results for one molecule from publication PMC4396868 (Birth defects research. Part A, Clinical and molecular …, 2014).

The assay deals with bovine folate binding protein (bFBP) (Bos taurus, UniProt P02702). Put plainly: competitive binding ELISA, displacement of folic acid-HRP, chemiluminescence.
Sequence of bovine folate binding protein (bFBP) (P02702 20-234): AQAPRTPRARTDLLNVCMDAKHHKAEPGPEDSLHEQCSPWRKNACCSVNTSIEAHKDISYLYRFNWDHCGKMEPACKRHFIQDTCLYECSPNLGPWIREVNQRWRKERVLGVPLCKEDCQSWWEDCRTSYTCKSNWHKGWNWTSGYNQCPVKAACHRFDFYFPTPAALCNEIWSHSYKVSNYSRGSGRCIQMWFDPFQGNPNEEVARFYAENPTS

`CCCC(CCC)C(=O)O` [Valproic acid] gave an IC50 of 269 mM.

In general, IC50 refers to the point on the concentration scale where inhibition reaches its midpoint. Higher therefore signals lower potency.
